{
  "source": "patent US12102619B2",
  "about": "(Jazz Pharmaceuticals Research UK Limited, priority 2020, dated 2024)",
  "key": {"[1]": {"details": "coadministered P-gp and CYP3A4 inhibitor; cited from earlier work"}, "[2]": {"experiment": "Clinical DDI study of steady-state CBD with orally dosed midazolam (GWEP17028)", "type": "in vivo", "details": "CBD at steady-state (750 mg bid, fed state), dosed concomitantly", "text": "The everolimus label contains no instructions to adjust the dose when administered with a P-gp inhibitor that is not also a moderate or strong CYP3A4 inhibitor."}, "[3]": {"experiment": "Steady state AUC of CBD by daily dose", "details": "human, in vivo", "text": "In some embodiments, the AUCt1-t2 is reported as a geometric mean (% coefficient of variation)."}, "[4]": {"experiment": "Adverse effects of elevated CBD levels", "type": "in vivo", "text": "Transaminase can lead to hepatic dysfunction, including unexplained nausea, vomiting, right upper quadrant abdominal pain, fatigue, anorexia, or jaundice and/or dark urine. Elevated exposure of everolimus exposure is known to cause non-infectious pneumonitis, infections, severe hypersensitivity to reactions, angioedema, stomatitis, renal failure, impaired wound healing, metabolic disorders, myelosuppression, risk of infection or reduced immune response with vaccination, embryo-fetal toxicity, and stomatis, respiratory tract infection. The methods of the disclosure reduce the incidence of one or more of the above side effects."}, "[5]": {"biological_target": "P-gp (Homo sapiens, UniProt P08183)", "sequence (P08183 whole entry)": "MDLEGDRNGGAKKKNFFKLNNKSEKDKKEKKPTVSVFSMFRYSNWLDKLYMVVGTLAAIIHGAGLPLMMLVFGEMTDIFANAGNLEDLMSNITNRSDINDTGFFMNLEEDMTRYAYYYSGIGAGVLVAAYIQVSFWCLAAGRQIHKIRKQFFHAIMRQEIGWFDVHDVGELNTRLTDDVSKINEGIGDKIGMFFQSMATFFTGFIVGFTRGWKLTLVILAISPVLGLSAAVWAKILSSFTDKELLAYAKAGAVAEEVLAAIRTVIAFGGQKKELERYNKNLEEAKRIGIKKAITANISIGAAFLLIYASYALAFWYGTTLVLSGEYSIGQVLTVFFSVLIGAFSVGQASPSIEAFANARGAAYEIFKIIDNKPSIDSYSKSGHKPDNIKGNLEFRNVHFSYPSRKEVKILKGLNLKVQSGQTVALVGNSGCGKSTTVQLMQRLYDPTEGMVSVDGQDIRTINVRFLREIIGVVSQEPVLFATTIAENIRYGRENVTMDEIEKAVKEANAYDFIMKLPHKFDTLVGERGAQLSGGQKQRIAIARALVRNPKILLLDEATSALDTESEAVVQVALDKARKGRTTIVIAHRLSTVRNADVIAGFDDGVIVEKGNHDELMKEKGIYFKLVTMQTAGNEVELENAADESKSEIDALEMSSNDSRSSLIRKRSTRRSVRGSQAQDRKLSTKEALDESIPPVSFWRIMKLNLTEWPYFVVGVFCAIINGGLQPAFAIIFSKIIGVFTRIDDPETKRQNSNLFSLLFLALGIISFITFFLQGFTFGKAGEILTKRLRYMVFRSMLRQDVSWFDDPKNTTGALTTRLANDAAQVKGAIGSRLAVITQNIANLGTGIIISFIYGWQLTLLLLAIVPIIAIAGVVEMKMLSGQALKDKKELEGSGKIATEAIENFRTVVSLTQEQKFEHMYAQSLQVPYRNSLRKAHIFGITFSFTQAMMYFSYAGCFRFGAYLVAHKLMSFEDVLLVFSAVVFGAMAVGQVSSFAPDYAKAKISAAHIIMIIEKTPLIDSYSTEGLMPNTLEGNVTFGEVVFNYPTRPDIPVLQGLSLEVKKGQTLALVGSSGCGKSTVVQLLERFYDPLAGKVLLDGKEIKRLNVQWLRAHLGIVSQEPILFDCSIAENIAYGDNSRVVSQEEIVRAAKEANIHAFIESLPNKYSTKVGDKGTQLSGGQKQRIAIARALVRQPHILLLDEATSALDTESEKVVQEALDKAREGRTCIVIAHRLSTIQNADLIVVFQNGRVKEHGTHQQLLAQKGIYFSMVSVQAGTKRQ", "experiment": "P-gp substrate status of the CBD metabolite", "type": "in vitro ADME", "text": "(§1) The pharmacological properties of CBD are not fully elucidated. […] 7-COOH-CBD is an inhibitor of transport mediated via BCRP and BSEP at clinically relevant concentrations."}, "[6]": {"biological_target": "T1, BCRP (Homo sapiens, UniProt Q9UNQ0)", "T1 sequence (Q9UNQ0 1-655)": "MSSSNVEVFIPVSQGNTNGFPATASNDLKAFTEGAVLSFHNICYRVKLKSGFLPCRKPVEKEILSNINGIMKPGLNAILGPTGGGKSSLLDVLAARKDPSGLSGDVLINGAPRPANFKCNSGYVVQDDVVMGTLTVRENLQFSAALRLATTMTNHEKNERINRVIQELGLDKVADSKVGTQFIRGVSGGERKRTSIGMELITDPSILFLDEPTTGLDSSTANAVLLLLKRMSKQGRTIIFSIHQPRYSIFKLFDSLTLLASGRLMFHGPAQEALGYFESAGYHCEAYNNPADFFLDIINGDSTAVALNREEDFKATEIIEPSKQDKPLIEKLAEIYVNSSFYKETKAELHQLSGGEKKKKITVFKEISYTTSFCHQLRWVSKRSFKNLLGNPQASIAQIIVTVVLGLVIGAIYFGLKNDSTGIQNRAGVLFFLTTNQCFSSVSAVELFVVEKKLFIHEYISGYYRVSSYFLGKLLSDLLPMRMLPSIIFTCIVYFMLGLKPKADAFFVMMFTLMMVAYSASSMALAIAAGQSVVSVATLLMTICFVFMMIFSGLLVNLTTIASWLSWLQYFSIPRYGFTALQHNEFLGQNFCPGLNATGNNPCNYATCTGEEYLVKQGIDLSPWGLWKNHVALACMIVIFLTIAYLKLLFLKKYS", "experiment": "Inhibition of BCRP-mediated transport", "type": "in vitro ADME", "details": "at clinically relevant concentrations", "text": "as §1"}, "[7]": {"biological_target": "BSEP (Homo sapiens, UniProt O95342)", "sequence (O95342 whole entry)": "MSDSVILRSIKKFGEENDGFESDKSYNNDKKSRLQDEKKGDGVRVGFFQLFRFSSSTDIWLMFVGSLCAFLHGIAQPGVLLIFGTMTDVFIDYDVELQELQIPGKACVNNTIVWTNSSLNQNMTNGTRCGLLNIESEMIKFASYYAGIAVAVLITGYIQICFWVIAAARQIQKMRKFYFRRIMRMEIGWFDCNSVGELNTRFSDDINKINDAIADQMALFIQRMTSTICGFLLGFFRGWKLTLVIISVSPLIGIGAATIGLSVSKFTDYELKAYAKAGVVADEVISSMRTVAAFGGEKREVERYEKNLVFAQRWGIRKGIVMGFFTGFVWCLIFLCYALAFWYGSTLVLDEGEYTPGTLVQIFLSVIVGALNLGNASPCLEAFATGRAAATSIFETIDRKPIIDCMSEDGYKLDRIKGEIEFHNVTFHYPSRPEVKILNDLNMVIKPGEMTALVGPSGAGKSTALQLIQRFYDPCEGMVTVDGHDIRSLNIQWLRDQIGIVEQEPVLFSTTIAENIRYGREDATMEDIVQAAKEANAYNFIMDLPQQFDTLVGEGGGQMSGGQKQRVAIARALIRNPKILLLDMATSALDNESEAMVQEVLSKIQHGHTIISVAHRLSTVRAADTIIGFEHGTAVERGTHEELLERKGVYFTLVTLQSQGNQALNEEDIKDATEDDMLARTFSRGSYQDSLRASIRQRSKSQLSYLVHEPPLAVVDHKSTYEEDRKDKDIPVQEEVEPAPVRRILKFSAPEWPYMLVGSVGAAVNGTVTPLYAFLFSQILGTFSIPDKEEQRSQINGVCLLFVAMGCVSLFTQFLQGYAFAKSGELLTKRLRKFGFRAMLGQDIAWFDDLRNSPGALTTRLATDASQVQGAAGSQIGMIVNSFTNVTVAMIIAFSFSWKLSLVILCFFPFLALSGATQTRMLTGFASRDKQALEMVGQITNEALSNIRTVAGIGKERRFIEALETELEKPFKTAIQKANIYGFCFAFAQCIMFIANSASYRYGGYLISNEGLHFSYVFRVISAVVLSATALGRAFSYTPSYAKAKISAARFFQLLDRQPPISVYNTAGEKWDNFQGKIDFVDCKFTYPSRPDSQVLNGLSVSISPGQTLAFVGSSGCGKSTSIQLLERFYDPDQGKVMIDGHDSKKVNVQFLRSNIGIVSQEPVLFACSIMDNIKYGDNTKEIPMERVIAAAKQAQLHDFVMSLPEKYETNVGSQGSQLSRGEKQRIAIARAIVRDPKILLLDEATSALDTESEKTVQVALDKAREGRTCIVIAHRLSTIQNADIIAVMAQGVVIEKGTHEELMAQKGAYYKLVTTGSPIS", "experiment": "Inhibition of BSEP-mediated transport", "type": "in vitro ADME", "details": "at clinically relevant concentrations", "text": "as §1"}, "[8]": {"experiment": "clinical", "details": "human, in vivo, 5 mg", "text": "The duration of the trial was approximately 9 weeks, which includes a screening period (up to 4 weeks), a treatment period (18 days) and a safety follow-up period (2 weeks). After signing the informed consent form (ICF), participants enter the screening period (Day −28 to −1). On Day −1, screened participants who continued to meet eligibility criteria were admitted to the clinical research unit (CRU) at approximately […] and enrolled into the trial. On Day 1, participants received everolimus, 30 minutes after starting a standard meal. […] On Day 18, participants were discharged from the CRU once all assessments were completed.\nThe time of the meal consumed at the site during days of IMP administration was recorded, as was the dose and dosing time of IMP (as appropriate) relative to sampling times.\nLog transformed Cmax, AUC(0-∞), and AUC(0-t) parameters for everolimus were analyzed using a linear mixed-effects model with a fixed effect for treatment and a random effect for participant. The treatment differences are back transformed to present the ratios of geometric means and the corresponding 90% confidence intervals (CIs)."}, "[9]": {"biological_target": "CYP3A4 (Homo sapiens, UniProt P08684)", "sequence (P08684 whole entry)": "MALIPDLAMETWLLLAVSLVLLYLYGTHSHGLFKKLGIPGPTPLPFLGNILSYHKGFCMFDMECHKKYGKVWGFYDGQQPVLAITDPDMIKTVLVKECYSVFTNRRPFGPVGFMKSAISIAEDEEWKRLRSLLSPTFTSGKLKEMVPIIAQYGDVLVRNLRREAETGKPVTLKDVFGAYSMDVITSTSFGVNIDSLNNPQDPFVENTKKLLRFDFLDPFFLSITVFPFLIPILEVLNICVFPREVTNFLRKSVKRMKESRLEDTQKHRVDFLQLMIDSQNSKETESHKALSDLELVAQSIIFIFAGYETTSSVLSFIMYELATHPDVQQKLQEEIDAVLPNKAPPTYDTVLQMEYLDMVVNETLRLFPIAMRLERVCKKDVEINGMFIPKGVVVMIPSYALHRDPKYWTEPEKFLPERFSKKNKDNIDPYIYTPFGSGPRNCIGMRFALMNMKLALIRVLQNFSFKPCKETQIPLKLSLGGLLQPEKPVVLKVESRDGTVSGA", "details": "oral dose of midazolam coadministered; cited from earlier work"}, "[10]": {"details": "cited from earlier work"}, "[11]": {"details": "once-daily dosing; cited from earlier work"}},
  "note": "Read-outs that look alike come from different tables or passages of the source.",
  "data": [
    {"smiles": "CC[C@H]1OC(=O)[C@H](C)[C@@H](O[C@H]2C[C@@](C)(OC)[C@@H](O)[C@H](C)O2)[C@H](C)[C@@H](O[C@@H]2O[C@H](C)C[C@H](N(C)C)[C@H]2O)[C@](C)(O)C[C@@H](C)C(=O)[C@H](C)[C@@H](O)[C@]1(C)O", "note": "[Erythromycin]", "values": [
      {"measurement": "Increase of the AUC of everolimus", "setting": "[1]", "value": 4.4, "unit": "fold"},
      {"measurement": "Increase of the Cmax of everolimus", "setting": "[1]", "value": 2.0, "unit": "fold"}
    ]},
    {"smiles": "C=C(C)[C@@H]1CCC(C)=C[C@H]1c1c(O)cc(CCCCC)cc1O", "note": "[CBD, Cannabidiol]", "values": [
      {"measurement": "Effect on orally dosed midazolam PK parameters", "setting": "[2]", "value": "no clinically significant effect"},
      {"measurement": "AUC(0-t)", "setting": "[3]; 5 mg/kg/day", "value": 241, "unit": "ng·h/mL"},
      {"measurement": "AUC(0-t)", "setting": "[3]; 10 mg/kg/day", "value": 722, "unit": "ng·h/mL"},
      {"measurement": "AUC(0-t)", "setting": "[3]; 20 mg/kg/day", "value": 963, "unit": "ng·h/mL"},
      {"measurement": "AUC", "setting": "[3]; 25 mg/kg/day", "value": 2520, "unit": "ng·h/mL"},
      {"measurement": "AUC", "setting": "[3]; 50 mg/kg/day", "value": 2730, "unit": "ng·h/mL"},
      {"measurement": "Adverse effects caused by elevated levels", "setting": "[4]", "value": "transaminase elevation, rash, somnolence, sedation, lethargy, diarrhea, pyrexia, weight decreased, nasopharyngitis, irritability, oropharyngeal pain, and decreased appetite"}
    ]},
    {"smiles": "C=C(C)[C@@H]1CCC(C(=O)O)=C[C@H]1c1c(O)cc(CCCCC)cc1O", "note": "[7-COOH-CBD, 7-carboxy-cannabidiol]", "values": [
      {"measurement": "P-gp substrate status", "setting": "[5]", "value": "substrate for P-gp"},
      {"measurement": "Inhibition of transport mediated via BCRP", "setting": "[6]", "value": "inhibitor"},
      {"measurement": "Inhibition of transport mediated via BSEP", "setting": "[7]", "value": "inhibitor"}
    ]},
    {"smiles": "CC(=O)N1CCN(c2ccc(OCC3COC(Cn4ccnc4)(c4ccc(Cl)cc4Cl)O3)cc2)CC1", "note": "(stereo not drawn) [ketoconazole]", "values": [
      {"measurement": "Increase of the AUC of everolimus", "setting": "[1]", "value": 15, "unit": "fold"},
      {"measurement": "Increase of the Cmax of everolimus", "setting": "[1]", "value": 3.9, "unit": "fold"}
    ]},
    {"smiles": "CO[C@H]1C[C@@H]2CC[C@@H](C)[C@@](O)(O2)C(=O)C(=O)N2CCCC[C@H]2C(=O)O[C@H]([C@H](C)C[C@@H]2CC[C@@H](OCCO)[C@H](OC)C2)CC(=O)[C@H](C)/C=C(\\C)[C@@H](O)[C@@H](OC)C(=O)[C@H](C)C[C@H](C)/C=C/C=C/C=C/1C", "note": "[Everolimus]", "values": [
      {"measurement": "AUC(0-inf)", "setting": "[8]", "value": 216, "unit": "ng·h/mL"},
      {"measurement": "AUC(0-t)", "setting": "[8]", "value": 95, "unit": "ng·h/mL"},
      {"measurement": "Cmax", "setting": "[8]", "value": 18, "unit": "ng/mL"},
      {"measurement": "Increase in midazolam AUC0-inf", "setting": "[9]", "value": 30, "unit": "%"},
      {"measurement": "Increase in midazolam Cmax", "setting": "[9]", "value": 25, "unit": "%"},
      {"measurement": "Everolimus AUC24, geometric mean±SD", "setting": "[10]; 2.5 mg of everolimus", "value": "570 ± 195", "unit": "ng·h/mL"},
      {"measurement": "Everolimus Cmaxss, geometric mean±SD", "setting": "[10]; 2.5 mg of everolimus", "value": "62.1 ± 13.1", "unit": "ng/mL"},
      {"measurement": "Everolimus Cminss, geometric mean±SD", "setting": "[10]; 2.5 mg of everolimus", "value": "13.6 ± 9.0", "unit": "ng/mL"},
      {"measurement": "Everolimus AUC24, geometric mean±SD", "setting": "[10]; 5 mg of everolimus", "value": "716 ± 123", "unit": "ng·h/mL"},
      {"measurement": "Everolimus Cmaxss, geometric mean±SD", "setting": "[10]; 5 mg of everolimus", "value": "114 ± 36", "unit": "ng/mL"},
      {"measurement": "Everolimus Cminss, geometric mean±SD", "setting": "[10]; 5 mg of everolimus", "value": "17.4 ± 4.5", "unit": "ng/mL"},
      {"measurement": "Everolimus tmax, median (range)", "setting": "[10]; 5 mg of everolimus", "value": 48, "unit": "min"},
      {"measurement": "Everolimus AUC24", "setting": "[10]; 10 mg of everolimus", "value": 1470, "unit": "ng·h/mL"},
      {"measurement": "Everolimus Cmaxss", "setting": "[10]; 10 mg of everolimus", "value": 139, "unit": "ng/mL"},
      {"measurement": "Everolimus Cminss", "setting": "[10]; 10 mg of everolimus", "value": 16.5, "unit": "ng/mL"},
      {"measurement": "Time to steady-state", "setting": "[11]", "value": "≤ 2", "unit": "weeks"}
    ]}
  ]
}
